Measurements published in patent publication US20080090805A1, “CB-1 MODULATING COMPOUNDS AND THEIR USE” (ACADIA PHARMACEUTICALS INC., priority 2005, published 2008).

Tested on: NSA mice
Experiment: Hypothermia study (block of CP 55,940-induced hypothermia)
Type: in vivo
Design: Hypothermia 3 mg/kg / Hypothermia 0.3 mg/kg: unit not given here
Conditions: 0.3 mg/kg
Description: . […] Core body temperatures were then obtained at various time points following CP 55,940 administration. Core body temperature (to the nearest 0.1° C.) was obtained by rectal probe.

| Compound | Hypothermia 0.3 mg/kg |
| --- | --- |
| CCCNC(=O)c1ccc2c(c1)N=C(c1ccc(Cl)cc1)c1ccccc1S2 [drawing 1588] | 29 |
| O=C(NCCc1cccnc1)c1ccc2c(c1)N=C(c1ccc(Cl)s1)c1ccccc1S2 [drawing 1585] | −14 |
| CC(C)CNC(=O)c1ccc2c(c1)N=C(c1ccc(Cl)cc1)c1ccccc1S2 [drawing 1634] | 25 |
| O=C(NN1CCCCCC1)c1ccc2c(c1)N=C(c1cccc(Cl)c1)c1ccccc1S2 [drawing 1586] | −27 |
| O=C(NN1CCCCCC1)c1ccc2c(c1)N=C(c1cccc(F)c1)c1ccccc1S2 [drawing 1590] | 21 |
| O=C(NCc1ccc(F)cc1)c1ccc2c(c1)N=C(C1CCCCC1)c1ccccc1S2 [drawing 1640] | 24 |
| Cc1csc(CNC(=O)c2ccc3c(c2)N=C(c2cccc(C)n2)c2ccccc2S3)c1 [drawing 1616] | 42 |
| O=C(NCCCC(F)(F)F)c1ccc2c(c1)N=C(c1ccsc1)c1ccccc1S2 [drawing 1600] | 32 |
| O=C(NC1CCC(F)(F)CC1)c1ccc2c(c1)N=C(c1cccc(Cl)c1)c1ccccc1S2 [drawing 1604] | 5 |
| O=C(NCc1ccco1)c1ccc2c(c1)N=C(c1ccc(Cl)cc1)c1ccccc1S2 [drawing 1650] | 28 |
| O=C(NN1CCCCC1)c1ccc2c(c1)N=C(c1ccc(Cl)cc1)c1ccccc1S2 [drawing 1575] | −18 |
| O=C(NN1CCCCC1)c1ccc2c(c1)N=C(c1ccc(F)cc1)c1ccccc1S2 [drawing 1582] | 7 |
| O=C(NN1CCCCCC1)c1ccc2c(c1)N=C(c1ccc(Cl)s1)c1ccccc1S2 [drawing 1584] | 33 |
| O=C(NCc1cccc(Cl)c1)c1ccc2c(c1)N=C(c1ccc(Cl)cc1)c1cc(F)ccc1S2 [drawing 1583] | 14 |
| O=C(NCc1cccnc1)c1ccc2c(c1)N=C(c1ccc(F)cc1)c1ccccc1S2 [drawing 1611] | 11 |

Same assay, conditions: 3 mg/kg

| Compound | Hypothermia 3 mg/kg |
| --- | --- |
| CCCCNC(=O)c1ccc2c(c1)N=C(c1cccc(F)c1)c1ccccc1S2 [drawing 1593] | 36 |
| CC(C)CCNC(=O)c1ccc2c(c1)N=C(c1ccccn1)c1ccccc1S2 [drawing 1649] | 21 |
| CCCNC(=O)c1ccc2c(c1)N=C(c1ccc(Cl)cc1)c1ccccc1S2 [drawing 1588] | 54 |
| C[C@@H]1CCC[C@H](C)N1NC(=O)c1ccc2c(c1)N=C(c1cccc(Cl)c1)c1ccccc1S2 [drawing 1605] | −2 |
| O=C(NCCc1cccnc1)c1ccc2c(c1)N=C(c1ccc(Cl)s1)c1ccccc1S2 [drawing 1585] | 76 |
| Cc1ccsc1C1=Nc2cc(C(=O)NN3CCCCC3)ccc2Sc2ccccc21 [drawing 1615] | 31 |
| CCCCNC(=O)c1ccc2c(c1)N=C(c1ccc(F)cn1)c1ccccc1S2 [drawing 1629] | 54 |
| CC(C)CNC(=O)c1ccc2c(c1)N=C(c1ccc(Cl)cc1)c1ccccc1S2 [drawing 1634] | 79 |
| O=C(NCCc1cccnc1)c1ccc2c(c1)N=C(c1cccc(Cl)c1)c1ccccc1S2 [drawing 1643] | 41 |
| O=C(NCCC(F)(F)F)c1ccc2c(c1)N=C(c1ccc(Cl)s1)c1ccccc1S2 [drawing 1624] | 37 |
| O=C(NN1CCCCCC1)c1ccc2c(c1)N=C(c1cccc(Cl)c1)c1ccccc1S2 [drawing 1586] | 86 |
| O=C(NN1CCCCCC1)c1ccc2c(c1)N=C(c1cccc(F)c1)c1ccccc1S2 [drawing 1590] | 85 |
| O=C(NCc1ccc(F)cc1)c1ccc2c(c1)N=C(C1CCCCC1)c1ccccc1S2 [drawing 1640] | 80 |
| Cc1csc(CNC(=O)c2ccc3c(c2)N=C(c2cccc(C)n2)c2ccccc2S3)c1 [drawing 1616] | 54 |
| Cc1ccsc1C1=Nc2cc(C(=O)NN3CCCCCC3)ccc2Sc2ccccc21 [drawing 1597] | 18 |
| CCCCNC(=O)c1ccc2c(c1)N=C(c1ccc(Cl)c(F)c1)c1ccccc1S2 [drawing 1626] | 79 |
| O=C(NCc1ccco1)c1ccc2c(c1)N=C(c1ccc(Cl)s1)c1ccccc1S2 [drawing 1557] | 66 |
| CCCCNC(=O)c1ccc2c(c1)N=C(c1ccc(Cl)s1)c1cc(F)ccc1S2 [drawing 1601] | 17 |
| Cc1ccsc1C1=Nc2cc(C(=O)NCc3cccs3)ccc2Sc2ccccc21 [drawing 1642] | 25 |
| O=C(NCCc1cccnc1)c1ccc2c(c1)N=C(c1ccc(Cl)c(Cl)c1)c1ccccc1S2 [drawing 1569] | 41 |
| O=C(NCc1ccccn1)c1ccc2c(c1)N=C(c1ccc(Cl)cc1)c1ccccc1S2 [drawing 1637] | 42 |
| O=C(NCc1ccco1)c1ccc2c(c1)N=C(c1ccc(Cl)c(Cl)c1)c1ccccc1S2 [drawing 1567] | 54 |
| O=C(NCc1ccco1)c1ccc2c(c1)N=C(c1ccc(Cl)cc1)c1ccccc1S2 [drawing 1650] | 79 |
| O=C(NCc1cccs1)c1ccc2c(c1)N=C(c1ccccc1F)c1ccccc1S2 [drawing 1623] | 10 |

| Compound | Hypothermia 3 mg/kg |
| --- | --- |
| CCCCNC(=O)C1=C/C=C/Sc2cc(F)ccc2/C(c2ccc(Cl)cn2)=N\C=C\1 | 4 |
| O=C(NCc1cccnc1)c1ccc2c(c1)N=C(c1ccc(Br)cc1)c1ccccc1S2 [drawing 1613] | 2 |
| COc1ccc(C2=Nc3cc(C(=O)NCC(C)C)ccc3Sc3ccccc32)cc1 [drawing 1599] | 71 |
| O=C(NCc1cccs1)c1ccc2c(c1)N=C(c1cccc(F)c1)c1ccccc1S2 [drawing 1559] | 17 |
| O=C(NCc1cccnc1)c1ccc2c(c1)N=C(c1cccc(F)c1)c1ccccc1S2 [drawing 1621] | 17 |
| O=C(NCc1ccccc1)c1ccc2c(c1)N=C(c1cccc(Cl)c1)c1ccccc1S2 [drawing 1638] | 27 |
| CC(C)CNC(=O)c1ccc2c(c1)N=C(c1ccc(Cl)c(Cl)c1)c1ccccc1S2 [drawing 1570] | 40 |
| O=C(NCc1ccccc1Cl)c1ccc2c(c1)N=C(c1cccc(Cl)c1)c1ccccc1S2 [drawing 1573] | −2 |
| O=C(NN1CCCCC1)c1ccc2c(c1)N=C(c1ccc(Cl)cc1)c1ccccc1S2 [drawing 1575] | 69 |
| O=C(NC1CCCCC1)c1ccc2c(c1)N=C(c1cccc(Cl)c1)c1ccccc1S2 [drawing 1574] | 74 |
| O=C(NCc1ccc(F)cc1)c1ccc2c(c1)N=C(c1ccc(Cl)cc1)c1ccccc1[S+]2[O-] (centres unmarked) [drawing 1645] | 22 |
| O=C(NN1CCCCC1)c1ccc2c(c1)N=C(c1ccc(Cl)cn1)c1ccccc1S2 [drawing 1651] | 57 |
| CCCCNC(=O)c1ccc2c(c1)N=C(c1ccc(Cl)cn1)c1ccccc1S2 [drawing 1595] | 53 |
| O=C(NCc1cccc(Cl)c1)c1ccc2c(c1)N=C(c1ccc(Cl)cc1)c1ccccc1S2 [drawing 1614] | −16 |
| O=C(NCc1ccco1)c1ccc2c(c1)N=C(c1cccc(F)c1)c1ccccc1S2 [drawing 1631] | 21 |
| CCCCNC(=O)c1ccc2c(c1)N=C(c1ccc(Cl)cn1)c1cc(F)ccc1S2 [drawing 1627] | 8 |
| O=C(NN1CCCCC1)c1ccc2c(c1)N=C(c1ccc(F)cc1)c1ccccc1S2 [drawing 1582] | 87 |
| O=C(NN1CCCCCC1)c1ccc2c(c1)N=C(c1ccc(Cl)s1)c1ccccc1S2 [drawing 1584] | 83 |
| O=C(NCc1cccc(Cl)c1)c1ccc2c(c1)N=C(c1ccc(Cl)cc1)c1cc(F)ccc1S2 [drawing 1583] | −4 |
| O=C(NCCc1ccncc1)c1ccc2c(c1)N=C(c1ccc(Cl)c(Cl)c1)c1ccccc1S2 [drawing 1591] | 41 |
| O=C(NCc1cccnc1)c1ccc2c(c1)N=C(c1ccc(F)cc1)c1ccccc1S2 [drawing 1611] | 28 |
| O=C(NC1CCCCC1)c1ccc2c(c1)N=C(c1ccc(Cl)cc1)c1ccccc1S2 [drawing 1603] | 60 |
| O=C(NCc1cccs1)c1ccc2c(c1)N=C(c1cccc(Cl)c1)c1ccccc1S2 [drawing 1622] | 61 |
| O=C(NCCc1ccncc1)c1ccc2c(c1)N=C(c1ccc(Cl)s1)c1ccccc1S2 [drawing 1609] | 67 |

Same assay, conditions: block of CP 55,940-induced hypothermia

| Compound | Hypothermia ID50 [mg/kg] |
| --- | --- |
| O=C(NCCc1cccnc1)c1ccc2c(c1)N=C(c1ccc(Cl)s1)c1ccccc1S2 [drawing 1585] | 1.7 |
| O=C(NN1CCCCCC1)c1ccc2c(c1)N=C(c1cccc(Cl)c1)c1ccccc1S2 [drawing 1586] | 1.14 |
| O=C(NN1CCCCCC1)c1ccc2c(c1)N=C(c1cccc(F)c1)c1ccccc1S2 [drawing 1590] | 0.93 |
| O=C(NCc1ccc(F)cc1)c1ccc2c(c1)N=C(C1CCCCC1)c1ccccc1S2 [drawing 1640] | 1.5 |
| Cc1csc(CNC(=O)c2ccc3c(c2)N=C(c2cccc(C)n2)c2ccccc2S3)c1 [drawing 1616] | 1.8 |
| O=C(NCc1ccco1)c1ccc2c(c1)N=C(c1ccc(Cl)cc1)c1ccccc1S2 [drawing 1650] | 0.9 |
| O=C(NN1CCCCC1)c1ccc2c(c1)N=C(c1ccc(F)cc1)c1ccccc1S2 [drawing 1582] | 0.96 |
| O=C(NN1CCCCCC1)c1ccc2c(c1)N=C(c1ccc(Cl)s1)c1ccccc1S2 [drawing 1584] | 0.59 |
